Data: PMC6164331, “Synthesis, Evaluation for Cytotoxicity and Molecular Docking Studies of Benzo[c]furan-Chalcones for Potential to Inhibit Tubulin Polymerization and/or EGFR-Tyrosine Kinase Phosphorylation” (International Journal of Molecular Sciences, 2018)
Read-outs that look alike come from different tables or passages of the source. Starred links: 1 amine or outer side, 2 acyl side, 3 side chain; linkers in the order of their positions; H or OH if unused. Positions of bridges follow the written chain, without caps; N, C: chain ends. Non-standard residues stand in square brackets, D forms with d. Residues, ends and D or L forms follow the SMILES beside them. Chains are numbered I, II in the order given. Actinocin(9to1) = Cc1c2oc3c(C)ccc(C(=O)[*:1])c3nc-2c(C(=O)[*:2])c(N)c1=O; NMeV = CN[C@H](C(=O)O)C(C)C; Sar = CNCC(=O)O

Tests used:
[1] = tested on: MCF-7 cell line; assay: MTT cytotoxicity assay against the MCF-7 cell line; settings: for IC50: read-out: MCF-7 Cell Line IC50 (μM) ± SD; for cytotoxicity against MCF-7 cells (in words): compared to actinomycin D
Procedure: The human breast cancer (MCF-7) cell line was maintained in culture flasks containing Dulbecco’s Modified Eagles Medium (DMEM). The media was supplemented with 1% antibiotics (100 µg/mL penicillin, 100 µg/mL streptomycin and 250 µg/L fungizone) and 10% heat-inactivated fetal bovine serum. […] The cells were sub-cultured every two-to-three days after the cells had formed a confluent monolayer.
The compounds were assessed at 0–100 µM. The control wells included vehicle treated cells exposed to 2% DMSO and the positive control, actinomycin D, with concentrations ranging between 5, 10, 25, and 50, and 100 µM. The microtitre plates were incubated for 48 h. After the 48 h incubation period the MTT reagent (10 µL) was added to a final concentration of 0.5 mg/mL and the plate was further incubated for another 4 h. After 4 h, 100 µL of the solubilisation solution was added to each well and the plate was allowed to stand overnight. Subsequently, the absorbance of the color complex was read at 550 nm with a reference wavelength set at 650 nm using a BIO-TEK Power-Wave XS multi-well plate reader (BioTech Instruments, Midrand, South Africa). The IC50 values of the compounds were calculated using OriginPro software (OriginLab Corporation, Northampton, MA, USA).

[2] = biological target: tubulin (Sus scrofa, UniProt P02550+P02554); assay: Cell-free tubulin polymerization assay; assay type: biochemical; settings: for IC50: colchicine as positive control, read-out: IC50 against tubulin polymerization; for inhibitory effect against tubulin polymerization (in words): compared to colchicine or to the other derivatives of the series
Procedure: Tubulin polymerization assays were carried out using the tubulin polymerization assay kit (Cytoskeleton, Inc., Denver, CO, USA) following the instruction by the manufacturer.

[3] = tested on: MCF-7 cells; assay: Annexin V-Cy3 SYTOX staining apoptosis assay (flow cytometry); assay type: cell-based, human; settings: for viability at 1 µM: Homo sapiens, read-out: %Viable Cells (Q3)
Text: Several distinctive modes of cell death such as apoptosis, necrosis, autophagy, and cornification exist and are characterized by differences in their morphology and their biochemical changes. […] We employed the Annexin V-Cy3 SYTOX apoptosis assay kit to distinguish between viable cells (Annexin V-negative; PI-negative), early apoptotic cells (Annexin V-positive; PI-negative), late apoptotic cells (Annexin V-positive; PI-positive) and unviable or necrotic cells (Annexin V-negative; PI-positive). The cells were analyzed by the flow cytometry, which is an important tool to evaluate the molecular and morphological events that take place during cell death and cell proliferation.
The percentage population of apoptotic cells were determined using Annexin V–Cy3 SYTOX apoptosis detection kit (Abcam, Milton, Cambridge, UK) according to the manufacturer’s instructions. […] The cells were incubated for 48 h and then stained with Annexin V–Cy3 SYTOX green dye. The cells were analyzed using BD Biosciences FACSAria III flow cytometer (BD Biosciences, San Jose, CA, USA).

[4] = tested on: Caspase-3 (Asp175); assay: Caspase-3 activation colorimetric assay in MCF-7 cells; assay type: cell-based, human; settings: 1 µM, 24 h, compared to 3i and actinomycin D
Procedure: Activation of caspases (caspase-2, 3, 6, 7, 8, 9, and 10) is a major biochemical feature that plays a central role in the morphological changes associated with apoptosis. Consequently, we evaluated compounds 3b and 3i for their potential to induce caspase-3 activation in the MCF-7 cells.
Caspase-3 activity was detected by means of Caspase-3 Colorimetric Assay Kit (Abcam, Cambridge, MA, USA). The cells were cultured in 24 well plates and treated for 24 h with 3b or 3i at a concentration of 1 µM against actinomycin D (1 µM) as a reference standard, respectively. The cells were then washed with PBS buffer and lysed on ice. The experiments were carried out according to the manufacturer’s instructions. Optical density was measured at absorbance of 450 nm using the BioTek microplate reader. The concentration of active Caspase-3 (Asp 175) were measured in duplicates and interpolated from the active caspase-3 (Asp 175) standard curve and corrected for sample dilution.

[5] = biological target: T1, EGFR-TK (Homo sapiens, UniProt P00533); assay: EGFR-TK phosphorylation inhibition assay (ELISA); assay type: biochemical; settings: purified EGFR
T1 construct: purchased Sigma-Aldrich, Bradford, UK
Procedure: The procedure was carried out according to the manufacturer’s protocol and referring to reported instructions as described in our previous investigation.

[6] = MTT, 48 h incubation, three individual experiments

Sequence of tubulin (P02550 whole entry): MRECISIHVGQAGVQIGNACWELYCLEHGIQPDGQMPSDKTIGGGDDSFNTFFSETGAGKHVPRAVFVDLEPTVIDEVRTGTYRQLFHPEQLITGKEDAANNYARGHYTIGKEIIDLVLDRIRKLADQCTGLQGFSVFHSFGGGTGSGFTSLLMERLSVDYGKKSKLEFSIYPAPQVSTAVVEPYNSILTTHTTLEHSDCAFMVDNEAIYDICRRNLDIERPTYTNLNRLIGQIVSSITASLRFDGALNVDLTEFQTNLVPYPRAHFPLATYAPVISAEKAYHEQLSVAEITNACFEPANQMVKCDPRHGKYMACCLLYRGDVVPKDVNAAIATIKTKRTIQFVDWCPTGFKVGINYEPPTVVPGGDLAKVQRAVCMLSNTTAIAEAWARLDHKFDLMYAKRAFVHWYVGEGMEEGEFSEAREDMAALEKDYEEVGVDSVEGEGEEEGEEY
Sequence of tubulin (P02554 whole entry): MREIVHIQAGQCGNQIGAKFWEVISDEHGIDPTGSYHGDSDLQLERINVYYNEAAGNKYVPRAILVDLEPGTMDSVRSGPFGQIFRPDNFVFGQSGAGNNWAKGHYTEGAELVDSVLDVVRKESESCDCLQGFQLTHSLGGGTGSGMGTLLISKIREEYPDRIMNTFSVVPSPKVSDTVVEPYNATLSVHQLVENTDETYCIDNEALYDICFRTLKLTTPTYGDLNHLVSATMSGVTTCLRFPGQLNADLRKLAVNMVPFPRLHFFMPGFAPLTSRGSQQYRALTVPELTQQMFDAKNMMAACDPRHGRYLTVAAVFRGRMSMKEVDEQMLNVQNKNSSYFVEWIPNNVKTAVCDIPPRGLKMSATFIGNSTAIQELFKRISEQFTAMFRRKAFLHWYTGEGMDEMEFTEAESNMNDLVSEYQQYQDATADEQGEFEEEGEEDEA
T1 sequence (P00533 25-1210): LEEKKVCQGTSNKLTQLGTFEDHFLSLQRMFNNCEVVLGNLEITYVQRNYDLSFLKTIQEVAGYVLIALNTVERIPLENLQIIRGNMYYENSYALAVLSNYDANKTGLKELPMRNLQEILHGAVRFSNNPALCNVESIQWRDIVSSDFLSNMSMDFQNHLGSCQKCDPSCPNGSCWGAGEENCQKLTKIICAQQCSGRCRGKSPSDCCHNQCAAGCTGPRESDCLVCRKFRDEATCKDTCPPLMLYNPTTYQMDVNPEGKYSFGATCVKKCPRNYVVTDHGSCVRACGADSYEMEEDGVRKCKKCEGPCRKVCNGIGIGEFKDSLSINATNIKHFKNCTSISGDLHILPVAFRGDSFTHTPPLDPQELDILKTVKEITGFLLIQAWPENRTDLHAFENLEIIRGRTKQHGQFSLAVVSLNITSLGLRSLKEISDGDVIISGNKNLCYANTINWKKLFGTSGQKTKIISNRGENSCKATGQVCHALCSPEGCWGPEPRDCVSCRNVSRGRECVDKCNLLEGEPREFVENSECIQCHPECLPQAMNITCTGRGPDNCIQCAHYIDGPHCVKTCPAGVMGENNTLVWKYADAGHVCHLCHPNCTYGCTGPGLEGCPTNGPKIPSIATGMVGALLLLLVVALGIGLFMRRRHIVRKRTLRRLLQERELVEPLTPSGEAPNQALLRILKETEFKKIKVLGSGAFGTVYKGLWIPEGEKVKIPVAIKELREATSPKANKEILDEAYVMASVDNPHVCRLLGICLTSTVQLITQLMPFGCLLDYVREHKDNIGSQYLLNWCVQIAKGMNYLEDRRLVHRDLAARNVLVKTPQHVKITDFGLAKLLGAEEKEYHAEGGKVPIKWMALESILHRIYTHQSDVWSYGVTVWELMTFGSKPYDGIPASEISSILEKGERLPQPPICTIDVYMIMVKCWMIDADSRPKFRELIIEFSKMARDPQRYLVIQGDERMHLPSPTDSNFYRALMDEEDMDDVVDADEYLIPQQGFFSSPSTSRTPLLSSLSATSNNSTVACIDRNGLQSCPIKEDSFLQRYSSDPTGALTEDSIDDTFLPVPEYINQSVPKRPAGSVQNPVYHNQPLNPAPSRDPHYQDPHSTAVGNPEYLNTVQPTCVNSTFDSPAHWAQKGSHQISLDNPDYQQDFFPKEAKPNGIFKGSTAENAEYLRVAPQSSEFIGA

SMILES	IC50 ([1]; Homo sapiens, MCF7, 48 h) [µM]	IC50 [2] [µM]	melting point [°C]	further results
O=C(/C=C/c1ccccc1)c1cc(Br)cc2cc(-c3ccccc3)oc12 [3a]	48 ± 2.1	15.6	–	–
O=C(/C=C/c1ccc(F)cc1)c1cc(Br)cc2cc(-c3ccccc3)oc12 [3b]	0.55 ± 0.24	26.5	–	viability at 1 µM ([3]; MCF7, MCF-7 cells, 1 µM, 48 h): 23.3%; %Early Apoptosis (Q4) ([3]; MCF-7 cells, 1 µM, 48 h): 1.5%; %Late Apoptosis (Q2) ([3]; MCF-7 cells, 1 µM, 48 h): 72%; %Necrosis (Q1) ([3]; MCF-7 cells, 1 µM, 48 h): 3.2%; induction of apoptosis (in words) ([3]; MCF-7 cells, 1 µM, 48 h, compared to 3i and actinomycin D): induced increased apoptosis; caspase-3 activation (in words) [4]: does not induce significant caspase activation; IC50 [5]: 0.17 ± 0.03 µM
O=C(/C=C/c1ccc(Cl)cc1)c1cc(Br)cc2cc(-c3ccccc3)oc12 [3c]	> 100	26.4	242 to 245	–
COc1ccc(/C=C/C(=O)c2cc(Br)cc3cc(-c4ccccc4)oc23)cc1 [3d]	22.8 ± 0.86	34.5	206 to 208	–
O=C(/C=C/c1ccc(OC(F)(F)F)cc1)c1cc(Br)cc2cc(-c3ccccc3)oc12 [3e]	0.59 ± 0.21	–	–	–
O=C(/C=C/c1ccccc1)c1cc(Br)cc2cc(-c3ccc(F)cc3)oc12 [3f]	35.8 ± 1.2	23.3	224 to 226	–
O=C(/C=C/c1ccc(F)cc1)c1cc(Br)cc2cc(-c3ccc(F)cc3)oc12 [3g]	48.6 ± 2.1	13.2	239 to 242	cytotoxicity against MCF-7 cells (in words) ([1]; MTT): reduced cytotoxicity
O=C(/C=C/c1ccc(Cl)cc1)c1cc(Br)cc2cc(-c3ccc(F)cc3)oc12 [3h]	54.16 ± 0.4	1.33	231 to 233	cytotoxicity against MCF-7 cells (in words) ([1]; MTT): reduced cytotoxicity
COc1ccc(/C=C/C(=O)c2cc(Br)cc3cc(-c4ccc(F)cc4)oc23)cc1 [3i, (E)-1-(5-Bromo-2-(4-fluorophenyl)benzofuran-7-yl)-3-(4-methoxyphenyl)prop-2-en-1-one]	0.000355	5.51e-05	–	viability at 1 µM ([3]; MCF7, MCF-7 cells, 1 µM, 48 h): 32.2%; %Early Apoptosis (Q4) ([3]; MCF-7 cells, 1 µM, 48 h): 3.1%; %Late Apoptosis (Q2) ([3]; MCF-7 cells, 1 µM, 48 h): 61.7%; %Necrosis (Q1) ([3]; MCF-7 cells, 1 µM, 48 h): 3.1%; IC50 [5]: 0.09 ± 0.03 µM
O=C(/C=C/c1ccc(OC(F)(F)F)cc1)c1cc(Br)cc2cc(-c3ccc(F)cc3)oc12 [3j]	–	0.00885	–	IC50 [1, 6]: 16 ± 0.62 µM
O=C(/C=C/c1ccccc1)c1cc(Br)cc2cc(-c3cccc(F)c3)oc12 [3k]	23 ± 0.38	77	243 to 245	–
O=C(/C=C/c1ccc(F)cc1)c1cc(Br)cc2cc(-c3cccc(F)c3)oc12 [3l]	> 100	3.98	266 to 267	cytotoxicity against MCF-7 cells (in words) ([1]; MTT): inactive
O=C(/C=C/c1ccc(Cl)cc1)c1cc(Br)cc2cc(-c3cccc(F)c3)oc12 [3m]	14.8 ± 0.33	10.2	234 to 235	–
COc1ccc(/C=C/C(=O)c2cc(Br)cc3cc(-c4cccc(F)c4)oc23)cc1 [3n]	39.2 ± 0.42	–	221 to 222	inhibitory effect against tubulin polymerization (in words) [2]: Moderate activity
O=C(/C=C/c1ccc(OC(F)(F)F)cc1)c1cc(Br)cc2cc(-c3cccc(F)c3)oc12 [3o, (E)-1-(5-Bromo-2-(3-fluorophenyl)benzofuran-7-yl)-3-(4-(trifluoromethoxy)phenyl)prop-2-en-1-one]	7.87 ± 0.25	0.000176	186 to 187	IC50 [5]: 0.12 ± 0.04 µM
O=C(/C=C/c1ccccc1)c1cc(Br)cc2cc(-c3cccc(Cl)c3)oc12 [3p]	12.6 ± 0.23	0.0937	218 to 219	inhibitory effect against tubulin polymerization (in words) [2]: significant inhibitory effects; IC50 [5]: 0.17 ± 0.06 µM
O=C(/C=C/c1ccc(F)cc1)c1cc(Br)cc2cc(-c3cccc(Cl)c3)oc12 [3q]	23.8 ± 0.29	51.3	232 to 233	–
O=C(/C=C/c1ccc(Cl)cc1)c1cc(Br)cc2cc(-c3cccc(Cl)c3)oc12 [3r]	66.8 ± 0.84	34.5	257 to 258	–
COc1ccc(/C=C/C(=O)c2cc(Br)cc3cc(-c4cccc(Cl)c4)oc23)cc1 [3s]	2.69 ± 0.23	0.71	214 to 215	inhibitory effect against tubulin polymerization (in words) [2]: significant inhibitory effects
O=C(/C=C/c1ccc(OC(F)(F)F)cc1)c1cc(Br)cc2cc(-c3cccc(Cl)c3)oc12 [3t]	–	2.83	–	IC50 [1, 6]: 26.6 ± 0.27 µM
COc1ccc(-c2cc3cc(Br)cc(C(=O)/C=C/c4ccccc4)c3o2)cc1 [3u]	48.96 ± 0.3	–	255 to 256	–
COc1ccc(-c2cc3cc(Br)cc(C(=O)/C=C/c4ccc(F)cc4)c3o2)cc1 [3v]	28.4 ± 0.46	0.0162	241 to 242	IC50 [5]: 0.15 ± 0.02 µM
COc1ccc(-c2cc3cc(Br)cc(C(=O)/C=C/c4ccc(Cl)cc4)c3o2)cc1 [3w]	30.6 ± 0.35	48.4	209 to 210	–
COc1ccc(/C=C/C(=O)c2cc(Br)cc3cc(-c4ccc(OC)cc4)oc23)cc1 [3x]	69.1 ± 0.76	67.4	216 to 217	–
COc1ccc(-c2cc3cc(Br)cc(C(=O)/C=C/c4ccc(OC(F)(F)F)cc4)c3o2)cc1 [3y]	43.17 ± 0.28	78	187 to 188	–
Cc1c2oc3c(C)ccc(C(=O)N[C@@H]4C(=O)N[C@H](C(C)C)C(=O)N5CCC[C@H]5C(=O)N(C)CC(=O)N(C)[C@@H](C(C)C)C(=O)O[C@@H]4C)c3nc-2c(C(=O)N[C@@H]2C(=O)N[C@H](C(C)C)C(=O)N3CCC[C@H]3C(=O)N(C)CC(=O)N(C)[C@@H](C(C)C)C(=O)O[C@@H]2C)c(N)c1=O [Actinomycin D, reference compound] (I: T[dV]P[Sar][NMeV] / II: T[dV]P[Sar][NMeV]; ester I:1-I:C, II:1-II:C; linker I:N-II:N via Actinocin(9to1))	37.8 ± 1.3	–	–	viability at 1 µM ([3]; MCF7, 48 h): 30.7%; %Early Apoptosis (Q4) ([3]; MCF-7 cells, 1 µM, 48 h): 3.4%; %Late Apoptosis (Q2) ([3]; MCF-7 cells, 1 µM, 48 h): 61.4%; %Necrosis (Q1) ([3]; MCF-7 cells, 1 µM, 48 h): 4.5%; IC50 [5]: 0.04 ± 0.03 µM
